Test: gradient 5% acetonitrile 3 min, to 50% in 2 min, to 85% in 15 min, held 3 min, 100 µL/min
Details: column: Zorbax Extend-C18 2.1 x 50 mm; eluents: water / acetonitrile, 0.1% formic acid
Procedure, shortened: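 Using water and acetonitrile that each contained 0.1% formic acid, mixtures of ~100 pure standards were separated at 100 μL/min on a Zorbax Extend-C18 column (2.1 × 50 mm, 1.8 μm). The HPLC fed a quadrupole time-of-flight mass spectrometer working in positive and negative ionization mode, with dead and dwell volumes of 40 μL and 900 μL. Data were acquired over 3 months. Retention time was read from computationally picked adduct peaks after manual inspection of each.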

Row | Structure (SMILES) | RP-LC retention time [s]
1 | O=C(NC1CCCCC1)C1CCN(C(=O)c2ncn3c2COC(c2ccc(F)cc2)C3)CC1 (centres undefined) | 784
2 | CCOc1ccccc1C(=O)n1nc(C)c(S(=O)(=O)N2CCOCC2)c1C | 962
3 | CCNS(=O)(=O)c1cccnc1Nc1ccc(Cl)c(F)c1 | 1090
4 | CC(C)CCNC(=O)C1(C)Cn2nc(C(=O)NCc3ccc(N(C)C)cc3)cc2C(=O)N1C (centres undefined) | 619
5 | O=C(Cn1cccc1-c1nnc(C2CC2)o1)N1CCN(c2cccc(Cl)c2)CC1 | 944
6 | Cc1ccc(N2CC(C(=O)N3CCC(NS(=O)(=O)c4ccc(C)cc4)CC3)CC2=O)cc1 (centres undefined) | 826
7 | Cn1nc(-c2nc(-c3ccccc3)no2)c2c1CCN(C(=O)Nc1cccc(Cl)c1)C2 | 1050
8 | O=P(OC1=CCCCC1)(c1ccccc1)c1ccccc1 | 1030
9 | CC(C)(C)c1ccc2c(c1)N(Cc1nc(-c3ccccc3Cl)no1)C(=O)CO2 | 1240
10 | O=c1ccc(-c2ccc3c(c2)OCO3)nn1Cc1nc(-c2ccc(F)c(Br)c2)no1 | 1100
11 | CCc1cc(C(=O)N2CCN(c3ccccn3)CC2)nc2cc(-c3cccs3)nn12 | 706
12 | O=C(Cc1ccc(Cl)cc1)NCc1nc(-c2cccc(-c3csc(C4CC4)n3)c2)no1 | 1120
13 | CCC1CCCCN1Cc1ccc(CNC(=O)c2c(C)oc3c2C2=NCCN2C=N3)o1 (centres undefined) | 710
14 | CC(C)COc1cc(=O)n2c(c1C(=O)NCCCn1cccn1)CCCCC2 | 659
15 | O=S(=O)(c1ccccc1F)N1CCc2nc(-c3ccccc3)ncc2C1 | 1010
16 | CC(NC(=O)Cc1nnc(-c2cnccn2)o1)c1ccc(F)cc1 (centres undefined) | 681
17 | CCOc1ccc(CNC(=O)C2CCN(S(=O)(=O)c3ccc4c(c3)CCCC(=O)N4)CC2)cc1 | 756
18 | CC(CNC(=O)c1nc(Cn2c(=O)oc3ccccc32)no1)c1ccccc1 (centres undefined) | 932
19 | CC(COc1ccc(C(C)C)cc1)NC(=O)c1cccs1 (centres undefined) | 998
20 | Nc1ncnc(N2CCc3ccccc32)c1[N+](=O)[O-] | 697
21 | Cc1cccc(C)c1Nc1c(-c2ccccc2O)nc2ncccn12 | 705
22 | O=C(CN1C(=O)C2CCCCN2c2ccc(S(=O)(=O)N3CCCC3)cc21)NCCN1CCCC1 (centres undefined) | 636
23 | Cc1cc(C)c(CNC(=O)c2cn3ccccc3n2)c(C)c1 | 783

Row | Structure (SMILES) | RP-LC retention time [s]
24 | O=C(CCn1cnc2cc(-c3noc(COc4ccc(Cl)cc4)n3)ccc21)N1CCCCCC1 | 884
25 | CCc1nc(-c2csc(S(=O)(=O)N3CCC(C(=O)Nc4ccc(OC)cc4)CC3)c2)no1 | 930
26 | O=C(NCC(O)c1ccsc1)C1(c2ccccc2)CCOCC1 (centres undefined) | 667
27 | CCCN1C(=O)Cc2ccccc2C1C(=O)NCc1ccc2c(c1)OCO2 (centres undefined) | 765
28 | CCC(Sc1nc2cc(OC)c(OC)cc2c2nc(C)nn12)C(=O)NCc1ccco1 (centres undefined) | 746
29 | Clc1ccc(-c2csc(Cc3nc(-c4ccccc4)no3)n2)cc1 | 1310
30 | CCOc1ccc(C2Cn3nnc(-c4nc(-c5ccccn5)no4)c3CO2)cc1 (centres undefined) | 921
31 | Cc1cccc(N2CCN(c3ccc4nnc(CCc5nc(-c6ccncc6)no5)n4n3)CC2)c1 | 846
32 | COc1ccc(C(=O)Nc2c(-c3ccccc3)nc3cc(C)ccn23)c(OC)c1 | 680
33 | CN1C(=O)Cc2ccccc2C1C(=O)NCc1ccc(F)cc1 (centres undefined) | 706
34 | O=C(c1cccs1)N1CCC2(CC1)NC(=O)N(Cc1cccc(Cl)c1)C2=O | 810
35 | COc1ccc2c(c1)C1(CCN(S(=O)(=O)c3cccc(Cl)c3)C1)C(=O)N2 (centres undefined) | 866
36 | Cc1c(Cl)cccc1-c1ccc(CNCCc2ccc(S(N)(=O)=O)cc2)o1 | 704
37 | COc1cccc(-n2ccn3cc(-c4ccc(Br)cc4)nc3c2=O)c1 | 893
38 | O=C(NCC(c1cccnc1)c1c[nH]c2ccccc12)Nc1cccc(F)c1 (centres undefined) | 671
39 | Cn1cccc1C(=O)C(=O)N1CCN(c2ccc(Cl)cc2)CC1 | 904
40 | CCc1ccc2c(c1)-c1ccccc1S(=O)(=O)N2CC(=O)N1CCN(CC)CC1 | 678
41 | CCOC(=O)c1cc(S(=O)(=O)N2CCCC2C(=O)Nc2ccc(F)cc2C)cn1C (centres undefined) | 940
42 | Cc1ccccc1CC(=O)Nc1ccc2c(c1)Sc1ncccc1C(=O)N2C | 806
43 | O=C(c1cn2ccnc(-c3ccccc3)c2n1)N1CCCC1 | 831
44 | COc1ccc(OC)c(NC(=O)CN2CCc3[nH]c4c(C)ccc(C)c4c(=O)c3C2)c1 | 693
45 | O=C(Nc1ccccc1)NC1CCCN(c2cc(-c3ccncc3)[nH]n2)C1 (centres undefined) | 602
46 | O=C(NCCc1ccccc1)N1CCc2nc[nH]c2C1 | 575

Row | Structure (SMILES) | RP-LC retention time [s]
47 | C=CCOC(=O)COc1ccc2c(=O)c(-c3ccc(Cl)cc3)coc2c1 | 1020
48 | CO[C@H]1C(=O)N(C(C)C)[C@H]1C1CCN(C(=O)C(C)C)CC1 | 682
49 | COc1ccc(-c2ncc3c(n2)CCN(S(=O)(=O)c2ccccc2C(F)(F)F)C3)cc1 | 1090
50 | CCC(C)NS(=O)(=O)c1cc(-c2c(C)noc2NC(C)=O)ccc1OC (centres undefined) | 720
51 | COc1cc(OC)c(NC(=O)Cn2nc3n(c2=O)CCCC3)cc1Cl | 673
52 | Cc1sc(-c2cc(C(F)(F)F)on2)cc1S(=O)(=O)Nc1ccc(Br)cc1F | 1230
53 | Cc1nnc(-c2coc(S(=O)(=O)N3CCCCC3C)c2)o1 (centres undefined) | 809
54 | Cc1cccc(S(=O)(=O)NC2CCN(c3ccc(F)cc3)C2=O)c1 (centres undefined) | 928
55 | Cn1c(=O)c2cc(C(=O)Nc3ccc(F)c(Cl)c3)sc2n(C)c1=O | 847
56 | Cc1ccc(C)c(NS(=O)(=O)c2cc3c(s2)CCN(C(=O)C2CC2)C3)c1 | 864
57 | O=C1C(c2cccnc2)N(c2ccc3c(c2)OCCO3)C(=O)CN1c1ccccc1 (centres undefined) | 644
58 | CCOc1ccc(S(=O)(=O)N2CCC(c3noc(-c4ccc(C)cc4)n3)CC2)cc1 | 1240
59 | Cc1cccc(-c2noc(Cn3ncn4nc(-c5ccc(F)cc5)cc4c3=O)n2)c1 | 1150
60 | c1ccc(-c2noc(C3CCN(Cc4ccco4)C3)n2)cc1 (centres undefined) | 644
61 | COC(=O)c1ccccc1NC(=O)Cn1c(-c2nonc2N)nc2ccccc21 | 993
62 | Cc1nc(-c2ccccc2F)sc1C(=O)NC1CC1 | 827
63 | O=c1c2scc(-c3cccc(F)c3)c2ncn1Cc1cccc(Br)c1 | 1180
64 | COc1ccc(-c2csc(Nc3ccccc3OC)n2)cc1 | 1130
65 | COc1ccc(NC(=O)C(=O)c2cccn2C)cc1OC | 784
66 | O=C(NCC1CCCO1)c1nc(-c2ccnc(N3CCCCC3)c2)no1 (centres undefined) | 654
67 | CCc1nnc2ccc(NC3CC3)nn12 | 657
68 | O=C1CCCc2cc(S(=O)(=O)NCCc3ccc(Cl)cc3)ccc2N1 | 800
69 | CN1C(=O)c2cccn2CC1C(=O)N1CCN(c2ncccn2)CC1 (centres undefined) | 609

Row | Structure (SMILES) | RP-LC retention time [s]
70 | O=C(NCc1ccc2c(c1)OCO2)c1nn(-c2ccc(Cl)cc2)nc1CO | 1010
71 | CC(C)Oc1ccc(-c2noc(CN3C(=O)C(C)Oc4ccccc43)n2)cc1 (centres undefined) | 1200
72 | O=C(Cn1nc2c(c1NC(=O)c1c(F)cccc1Cl)CSC2)NCC1CCCO1 (centres undefined) | 671
73 | CC(=O)Nc1nsc(N2CCC(C(=O)N3CCN(c4ccccc4F)CC3)CC2)n1 | 695
74 | CC1=NS(=O)(=O)N(Cc2ccccc2)C=C1C(=O)OCc1ccc(C(C)(C)C)cc1 | 1320
75 | CCn1cnc2cc(-c3noc(CNC(=O)Cc4ccc(Cl)cc4)n3)ccc21 | 658
76 | Cn1c(CN2CCN(C(=O)NCc3ccco3)CC2)nc2cc(C(=O)N3CCCC3)ccc21 | 590
77 | CCOC(=O)C1CCc2sc(NC(=O)Cc3noc4ccccc34)nc21 (centres undefined) | 818
78 | O=C(CCc1nnc2c3cc(-c4ccc(Cl)cc4)nn3ccn12)N1CCN(c2ccccn2)CC1 | 955
79 | Cc1cc(C)cc(NC(=O)NCCn2nnc3cc(C(=O)N4CCCC4)ccc32)c1 | 702
80 | CC(=O)N1C[C@@H](C(=O)NCc2cccs2)[C@H](c2nc(C)no2)C1 | 630
81 | CSc1ccc(C2c3[nH]c4ccccc4c3CCN2C(=O)c2ccco2)cc1 (centres undefined) | 1140
82 | Cc1cc2c(=O)n(CC(=O)Nc3cc(F)ccc3F)ccc2s1 | 817
83 | CCNC(=O)Cc1nnc(-c2cccc(F)c2)o1 | 656
84 | CC(C)Cn1c(=O)c(C(=O)NC2CCCC2)nc2cccnc21 | 936
85 | COc1cc([C@@H]2c3cc4c(cc3[C@H](O)[C@@H](CO)[C@@H]2C(=O)NCc2cccc(C(F)(F)F)c2)OCO4)cc(OC)c1OC | 783
86 | Cc1ccc(-c2nc(Cn3ccnc3C)no2)cc1 | 634
87 | CSc1cccc(N2C=C(C(=O)N3CCCC3)S(=O)(=O)c3ccccc32)c1 | 819
88 | CN1C(=O)CCC2(CNC(=O)c3ccnn3C)CCC=C12 (centres undefined) | 639
89 | Cc1noc(-c2ccc(OC3CN(C(=O)Nc4ccccc4)C3)cc2)n1 | 737

Reference: the METLIN SMRT retention time set (Domingo-Almenara et al. 2019)
